The numbers were not newly measured in patent US9149457B2, “Nutraceutical composition for PDE4 inhibition, enhanced dopamine metabolism and long term potentiation” (priority 2013, dated 2015), which cites them from elsewhere.

The structures appear in SMILES notation.

For series [1] the following is noted: references 7-13.
The conditions of series [2]: references 46-47.
Series [3] has as its system phosphodiesterase enzymes (PDE 1 through 5). The settings on record: references 24-27.
In the next series the test system is acetylcholine. The settings on record: references 33-35.

Turning to `COc1ccc(C2CNC(=O)C2)cc1OC1CCCC1` (stereo not shown) [rolipram], the side effect result in series [1] was “emesis (vomiting) at low doses”.

Take `O=C(/C=C/C=C/c1ccc2c(c1)OCO2)N1CCCCC1` [Piperine, piperine]: the bioavailability of resveratrol entry in series [2] was “enhance the bioavailability of resveratrol”.

On to `O=c1cc(-c2ccc(O)c(O)c2)oc2cc(O)cc(O)c12` [Luteolin, luteolin], for which the “inhibition of phosphodiesterase enzymes that degrade 3',5'-cyclic nucleotides” value in series [3] was “can inhibit”.

Turning to `CC(=O)O[C@H](CC(=O)[O-])C[N+](C)(C)C` [Acetyl-L-carnitine, acetyl-L-carnitine], in the series on acetylcholine, the “levels of acetylcholine in the brain” value was “increase the levels”.
